# Test results taken from patent publication US20260285853A1, “COMPOUNDS AND METHODS FOR MODULATING SPLICING” (REMIX THERAPEUTICS INC., priority 2023, published 2026).
# pIC50: −log10 of the molar value.
# Experiments:
# Assay type in all cases: cell-based
# [1] = test system: HTT mRNA; assay: Splicing RT-qPCR assay (THP), Table 2A; settings: Table 2A (THP)
# [2] = test system: MYB mRNA; assay: Splicing RT-qPCR assay (THP), Table 2A; settings: Table 2A (THP)
# [3] = test system: SH-SY5Y (human neuroblastoma) cells; assay: Cell viability, Cell Titer Glo 2.0 assay; settings: read-out: Viability SHSY5Y.3 GI50
# Procedure: Compounds described herein were screened for toxicity in K562 (human chronic myelogenous leukemia) and SH-SY5Y (human neuroblastoma) cells using a Cell Titer Glo 2.0 assay.
# • Promega CellTiter-Glo® 2.0 Cell Viability Assay (cat #G9241) • Corning 384-well TC-treated microplates (cat #3570)
# Cells were plated at 500 cells/well (K562 cells) in 45 μL of IMDM supplemented with 10% FBS in a 384-well opaque plate. Wells containing only medium were used as a blank control. Test compounds (e.g., compounds of Formula (I) or (II) were first serially diluted in DMSO then diluted 1:100 with IMDM+10% FBS. The final concentration of DMSO was 0.1% in each well. The cells were incubated for 72 hours at 37° C. and 5% CO2 before assaying with Cell Titer Glo 2.0 reagent.
"pIC50 ([1]; CJ mRNA decrease, read-out: HTT CJ (decrease in canonical junction mRNA, IC50))","pIC50 ([2]; CJ mRNA decrease, read-out: MYB CJ (decrease in canonical junction mRNA, IC50))",GI50 [3] [µM],Compound,"AC50 ([1]; AJ mRNA increase, read-out: HTT AJ (increase in alternative junction mRNA, AC50)) [µM]","AC50 ([2]; AJ mRNA increase, read-out: MYB AJ (increase in alternative junction mRNA, AC50)) [µM]"
< 5.00,< 5.00,–,"Cc1cn2cc(NC(=O)c3ncc(N4CCC(NC5CC5)CC4)c4cn(C)nc34)nc2c(C)n1 [Compound 264, 4-[4-(cyclopropylamino)-1-piperidyl]-N-(6,8-dimethylimidazo[1,2-a]pyrazin-2-yl)-2-methyl-pyrazolo[3,4-c]pyridine-7-carboxamide]",> 10,> 10
–,–,1 to 10,"Cc1cn2cc(NC(=O)c3ccc(N4CCNCC4)c4cn(C)nc34)cc(Br)c2n1 [Compound 265, N-(8-bromo-2-methyl-imidazo[1,2-a]-pyridin-6-yl)-2-methyl-4-piperazin-1-yl-indazole-7-carboxamide]",–,–
